These results are taken from publication PMC2225630 (The Journal of General Physiology, 1966).

The test system of assay [1] is Ehrlich cell. The following applies: first minute, high amino acid levels; cited from earlier work.
Assay [2] deals with Na+-sensitive transport system (system A) of the Ehrlich cell. The experiment in a line: Na+-sensitive uptake of amino acids. The assay is classed as cell-based, mice.
Assay [3] deals with Na+-insensitive uptake, Ehrlich cell. The experiment in a line: Uptake of amino acids by Ehrlich cells from Na+-free medium. The assay is classed as cell-based, mice. The following applies: for uptake (Table II): amino acid 1 mM, [Na+] 0; for inhibitory action on the uptake of methionine: choline has replaced Na+ (Table I); for Uptake of methionine in presence of inhibitor (Table I): labeled methionine 1 mM; for Uptake of methionine in presence of inhibitor (Table I) / Uptake of AIB in presence of inhibitor (Table I) / Uptake of labeled amino acid without inhibitor (Table I): no Na+; for Km: read-out: Km for the other amino acid (Table V), choline medium, 37 C, pH 7.4, 1 min, only approximate; for Km / Ratio of uptake Methionine/other amino acid (Table VI): absence of Na+; for Rate of methionine uptake (Table IV): 1 mM, Na+-free Krebs-Ringer phosphate medium; for Uptake of AIB in presence of inhibitor (Table I): labeled AIB 1 mM; for Uptake of labeled amino acid without inhibitor (Table I): labeled amino acid 1 mM, inhibitor 0.

For assay [4], the system named is Ehrlich cell. It is filed as cell-based, mice. Conditions: above 16 mM methionine, modified KRB medium with Na+, 1 min, 37 C, pH 7.4.
The mark [5] stands for this setting: [Na+] 107 mEq/liter, 1 min, 37 C, pH 7.4.
The mark [6] stands for this setting: methionine 0.25 mM + AIB 1.0 mM, 1 min, 37 C, pH 7.4.
[7] abbreviates: methionine 0.5 mM + AIB 2.0 mM, 1 min, 37 C, pH 7.4.
Setting [8] is: methionine 1.0 mM + AIB 4.0 mM, 1 min, 37 C, pH 7.4.
Setting [9] is: read-out: Km of Na+-sensitive uptake, [Na+] 107 mEq/liter, 1 min, 37 C, pH 7.4.
Setting [10] is: choline chloride substituting for NaCl, Exp. 1.
The mark [11] stands for this setting: choline chloride substituting for NaCl, Exp. 2.
[12] abbreviates: sucrose substituting for NaCl, Exp. 1.
Setting [13] is: sucrose substituting for NaCl, Exp. 2.

Where “and” joins values, the source holds several entries; their conditions need not be identical. Equal values may be shown once. Read-outs that look alike come from different tables or passages of the source.

With `CC(C)(N)C(=O)O` [AIB, a-aminoisobutyric acid, reference compound], the “rate of permeation at high levels ("nonsaturable" migration)” value in assay [1] was 0.1 min-'. Further, the “Vmax of Na+-sensitive uptake” value in assay [2] (setting [5]) is reported as 5 mmoles/kg cell water min. The “Vmax, velocities extrapolated to infinite [Na+]” value in assay [2] was 7.1 mM/kg cell water min. Also, the “Sodium-sensitive uptake rate of the test amino acid in mixture (Table III)” value in assay [2] (setting [6]) stood at 0.51 mmoles/kg cell water min; in assay [2] (setting [7]), 0.64 mmoles/kg cell water min; in assay [2] (setting [8]), 0.77 mmoles/kg cell water min. For the same compound, in assay [2] (setting [9]), the Km is 2000 µM. Also, the “uptake (Table II)” value in assay [3] (setting [10]) stood at 0.16 mmoles/kg cell water min; in assay [3] (setting [11]), 0.21 mmoles/kg cell water min; in assay [3] (setting [12]) it was 0.21 mmoles/kg cell water min; in assay [3] (setting [13]) it was 0.29 mmoles/kg cell water min. For the same compound, the “inhibitory action on the uptake of methionine” value in assay [3] is reported as “no significant inhibitory action”. The “Uptake of methionine in presence of inhibitor (Table I)” value in assay [3] (inhibitor 4 mM) was determined as 2.63 mmoles/kg cell water-min; in assay [3] (inhibitor 8 mM), 2.62 mmoles/kg cell water-min.
For `CNC(C)(C)C(=O)O` [MeAIB, α-(methylamino)-isobutyric acid, reference compound], in assay [2] (setting [9]), the Km was approximately 300 µM. Moreover, the “inhibitory action on the uptake of methionine” value in assay [3] is given as “no significant action”. The “Uptake of methionine in presence of inhibitor (Table I)” value in assay [3] (inhibitor 16 mM) is 1.77 mmoles/kg cell water-min.
As to `C[C@H](N)C(=O)O` [alanine], the “Vmax of Na+-sensitive uptake” value in assay [2] (difference method of Fig. 5) is listed as 6.4 mmoles per kg cell water min.
As to `NCC(=O)O` [glycine], the “Vmax of Na+-sensitive uptake” value in assay [2] (difference method of Fig. 5) is reported as 7.4 mmoles per kg cell water min.
As for `CC(C)C[C@H](N)C(=O)O` [leucine], in assay [3], the Km came out at 150 µM.
For the compound `CSCC[C@H](N)C(=O)O` [methionine, L-methionine], the “linear slope of increase of uptake rate with methionine concentration” value in assay [4] was determined as 0.09 min- l. For the same compound, the “inhibition of the saturable uptake of AIB” value in assay [2] (Na+ at 107 mEq/liter, Fig. 10) was “so nearly complete”. Moreover, in assay [2] (setting [5]), the “Vmax of Na+-sensitive uptake” value was 4 mmoles/kg cell water min and 3.7 mmoles/kg cell water min. The “Vmax, velocities extrapolated to infinite [Na+]” value in assay [2] is given as 5.0 mM/kg cell water min. The “inhibition of the uptake of MeAIB” value in assay [2] (in the presence of Na+) is “inhibits almost completely”. The “Ratio of uptake rates methionine/AIB (Table III)” value in assay [2] (methionine 0.25 mM + AIB 1.0 mM) is on record as 1.1; in assay [2] (methionine 0.5 mM + AIB 2.0 mM) it was 1.5; in assay [2] (methionine 1.0 mM + AIB 4.0 mM), 1.4. Also, the “Sodium-sensitive uptake rate of the test amino acid in mixture (Table III)” value in assay [2] (setting [6]) is on record as 0.58 mmoles/kg cell water min; in assay [2] (setting [7]), 0.99 mmoles/kg cell water min; in assay [2] (setting [8]), 1.04 mmoles/kg cell water min. For the same compound, the Km in assay [2] (setting [9]) was 300 µM; in assay [2] (read-out: Km, velocities extrapolated to infinite [Na+], data of Fig. 12 left), 140 µM. Also, the “Rate of methionine uptake (Table IV)” value in assay [3] (pH 5.6, Exp. 1) was 3.03 mmoles/kg cell water min; in assay [3] (pH 5.6, Exp. 2), 2.99 mmoles/kg cell water min; in assay [3] (pH 6.3, Exp. 1) it was 3.03 mmoles/kg cell water min; in assay [3] (pH 6.3, Exp. 2), 3.08 mmoles/kg cell water min; in assay [3] (pH 7.0, Exp. 1) it was 2.86 mmoles/kg cell water min; in assay [3] (pH 7.0, Exp. 2), 2.87 mmoles/kg cell water min. The “inhibitory action on the residual uptake of AIB” value in assay [3] (Na+ replaced with choline+ (Table I)) is reported as “negligible inhibitory action”. In addition, in assay [3] (after 1 min, all Na+ eliminated from the medium), the “distribution ratio (cellular level to extracellular level)” value was found to be 2.25. Further, the “uptake (Table II)” value in assay [3] (setting [10]) is 1.35 mmoles/kg cell water min; in assay [3] (setting [11]), 2.48 mmoles/kg cell water min; in assay [3] (setting [12]) it was 1.44 mmoles/kg cell water min; in assay [3] (setting [13]), 2.79 mmoles/kg cell water min. Besides, the figures for the “Uptake of AIB in presence of inhibitor (Table I)” value in assay [3] (inhibitor 0.5 mM) and in assay [3] (inhibitor 1 mM) were 0.17 mmoles/kg cell water-min and 0.14 mmoles/kg cell water-min, respectively. The figures for the “Uptake of labeled amino acid without inhibitor (Table I)” value in assay [3] (experiment with AIB as inhibitor) and in assay [3] (experiment with MeAIB as inhibitor) were 2.68 mmoles/kg cell water-min and 1.77 mmoles/kg cell water-min, respectively. Also, the “Ratio of uptake Methionine/other amino acid (Table VI)” value is 0.99 in assay [3] (methionine and leucine, each 0.2 mM); 0.94 in assay [3] (methionine and leucine, each 0.4 mM); 0.92 in assay [3] (methionine and leucine, each 0.8 mM); 0.99 in assay [3] (methionine and leucine, each 1.6 mM); 3.2 in assay [3] (methionine and valine, each 0.25 mM); 2.18 in assay [3] (methionine and valine, each 0.5 mM). The “Ratio of uptake Methionine/other amino acid (Table VI)” value in assay [3] (methionine and valine, each 1.0 mM) is listed as 1.65; in assay [3] (methionine and valine, each 2.0 mM) it was 1.33.
For the compound `CC(C)[C@H](N)C(=O)O` [valine], the Km in assay [3] was 750 µM.

As a reminder, the Km is the concentration of substrate that gives half-maximal velocity.
